According to ChEMBL document CHEMBL1151109, “Interference Competition Among Natural Fungal Competitors: an Antifungal Metabolite from the Coprophilous Fungus Preussia fleischhakii” (J Nat Prod, 1988):
≈ marks a conversion by molar mass, not a printed value.

Key:
[1] = Toxicity in brine shrimp; assay type: organism-based; conditions: artemia, in vivo
Ascobolus = experiment: Antifungal activity against sAscobolus furfuraceus NRRL 6459 assessed as hyphal morphological changes; assay type: functional, organism-based
Sordaria fimicola = experiment: Antifungal activity against Sordaria fimicola NRRL 6460 assessed as hyphal morphological changes; assay type: functional, organism-based

COc1cc(C)c(Oc2cc(C)cc(O)c2)c(O)c1 [CYPERIN]
LC50 [1]: 125 µg/mL (≈ 480 µM) | IC50 (Ascobolus): 100 µg/mL (≈ 384 µM) | MIC (Ascobolus): 250 µg/mL (≈ 960 µM) | IC50 (Sordaria fimicola): 50 µg/mL (≈ 192 µM) | MIC (Sordaria fimicola): 75 µg/mL (≈ 288 µM)
